Test results reported in patent US9352013B2, “Uses of bremelanotide in therapy for female sexual dysfunction” (Palatin Technologies, Inc., priority 2012, dated 2016).

Assay: Subcutaneous trial in males: vomiting
Format: in vivo, human
Settings: intramuscular ondansetron
Protocol: In a trial in males, 1 of 6 subjects at the 5-mg dose level, 1 of 6 subjects at the 7.5 mg dose level, and 3 of 6 subjects at the 10-mg dose level experienced vomiting that was mild or moderate in intensity and delayed 6 to 15 hours.

Compound: Cc1nccn1CC1CCc2c(c3ccccc3n2C)C1=O (stereo not shown) [ondansetron, reference compound]
- Resolution of bremelanotide-associated vomiting: Vomiting could be resolved
